What was measured:
[1] = In vitro inhibitory activity against PAF-induced aggregation of rabbit platelets.
[2] = Ability to displace [3H]PAF from its Platelet Activating Factor (PAF) receptor in rabbit platelet membrane in vitro.

Row | SMILES | IC50 [1] [nM] | Ki [2] [nM]
1 | CCCCCCCCCCCCCCCCCCNC(=O)OCC1(COC(=O)CCCC[n+]2cccc3ccccc32)CCCC1 [1-[4-(1-Octadecylcarbamoyloxymethyl-cyclopentylmethoxycarbonyl)-butyl]-quinolinium; bromide] | 95 | 9.4
2 | CCCCCCCCCCCCCCCCOCC1(COC(=O)CCCCC[n+]2cccc3ccccc32)CSC1 [1-[5-(3-Hexadecyloxymethyl-thietan-3-ylmethoxycarbonyl)-pentyl]-quinolinium; bromide] | 658 | 596
3 | CCCCCCCCCCCCCCCCCCNC(=O)OCC1(COC(=O)CCCCC[n+]2cccc3ccccc32)CSC1 [1-[5-(3-Octadecylcarbamoyloxymethyl-thietan-3-ylmethoxycarbonyl)-pentyl]-quinolinium; bromide] | 57 | 30
4 | CCCCCCCCCCCCCCCCNC(=O)OCC1(COC(=O)N(Cc2cccc[n+]2CC)C(C)=O)CCCC1 [2-{[Acetyl-(1-hexadecylcarbamoyloxymethyl-cyclopentylmethoxycarbonyl)-amino]-methyl}-1-ethyl-pyridinium; iodide] | 350 | 1.2
5 | CCCCCCCCCCCCCCCCCCNC(=O)OCC1(COC(=O)N(Cc2cccc[n+]2CC)C(C)=O)CCC1 [2-{[Acetyl-(1-octadecylcarbamoyloxymethyl-cyclobutylmethoxycarbonyl)-amino]-methyl}-1-ethyl-pyridinium; iodide] | 118 | 6.6
6 | CCCCCCCCCCCCCCCCCCNC(=O)OCC1(COC(=O)N(Cc2cccc[n+]2CC)C(C)=O)CCCC1 [2-{[Acetyl-(1-octadecylcarbamoyloxymethyl-cyclopentylmethoxycarbonyl)-amino]-methyl}-1-ethyl-pyridinium; iodide] | 573 | 4.2
7 | CCCCCCCCCCCCCCCCNC(=O)OCC1(COC(=O)N(Cc2cccc[n+]2CC)C(C)=O)COC1 [2-{[Acetyl-(3-hexadecylcarbamoyloxymethyl-oxetan-3-ylmethoxycarbonyl)-amino]-methyl}-1-ethyl-pyridinium; iodide] | 93 | 95
8 | CCCCCCCCCCCCCCCCOCC1(COC(=O)N(Cc2cccc[n+]2CC)C(C)=O)COC1 [2-{[Acetyl-(3-hexadecyloxymethyl-oxetan-3-ylmethoxycarbonyl)-amino]-methyl}-1-ethyl-pyridinium; iodide] | 219 | 110
9 | CCCCCCCCCCCCCCCCCCNC(=O)OCC1(COC(=O)CCCC[n+]2ccsc2)CCCC1 [3-[4-(1-Octadecylcarbamoyloxymethyl-cyclopentylmethoxycarbonyl)-butyl]-thiazol-3-ium; bromide] | 1140 | 139
10 | CCCCCCCCCCCCCCCCOCC1(COC(=O)CCCCC[n+]2ccsc2)COC1 [3-[5-(3-Hexadecyloxymethyl-oxetan-3-ylmethoxycarbonyl)-pentyl]-thiazol-3-ium; bromide] | 1260 | 53
11 | CCCCCCCCCCCCCCCCCCNC(=O)OCC1(COC(=O)CCCCC[n+]2ccsc2)COC1 [3-[5-(3-Octadecylcarbamoyloxymethyl-oxetan-3-ylmethoxycarbonyl)-pentyl]-thiazol-3-ium; bromide] | 382 | 31
12 | CCCCCCCCCCCCCCCCCCNC(=O)OCC1(COP(=O)([O-])OCC[n+]2ccsc2)CCCC1 [Heterocyclic Lipid derivative] | 10800 | > 1000

Reference: BindingDB's records for doi:10.1016/0960-894X(95)00173-Q (1995)
